The source of these data is patent US10821091B2, “Retinoid compositions and methods of increasing immune cell-mediated killing of IDH mutant cancer cells” (UNIVERSITY OF PITTSBURGH—OF THE COMMONWEALTH SYSTEM OF …, priority 2017, dated 2020).

For series [1] the following is noted: mouse, in vivo. As for the experimental part: (§1) Mice. 6-8 week old Balb/c nude mice (CAnN.Cg-Foxn1nu/Crl) were purchased from Charles River Laboratories. Mice were injected with 10^6 IDH WT or mutant primary glioma cells sub-cutaneously in the right flank. When the tumors were about 25 mm^2, ATRA treatment was started. 10 mg/Kg ATRA was administered to mice intra-peritoneally (i.p.) every alternate day until termination of the experiment. DMSO-treated mice were used as controls. The mice were monitored for signs of drug toxicity such as weight-loss, lethargy, skin lesions and diarrhea. The tumors were measured every 3 days, and the mice were sacrificed when the tumors were about 400 mm^2. For NK depletion experiments, 6-week old B6 nude mice (B6.Cg-Foxn1nu/J) were purchased from The Jackson Laboratory. NK depletion was performed by injecting mice with 200 μg of anti-NK1.1 antibody (Biolegend) i.p. on the day ATRA treatment was started. Mice injected with 200 μg of an isotype antibody were used as controls. Mice were bled and evaluated for circulating NKs by flow cytometry.
Retinoic acid has been used as a chemotherapeutic agent in a wide variety of cancers, in pre-clinical as well as clinical applications. 13-cis-RA is the most common form of RA used in clinics, and is effective in a variety of neoplasms. Therefore, the efficacy of 13-cis RA was compared with ATRA and Bexarotene (a synthetic retinoic acid analogue) in IDH mutant gliomas.

The subject of series [2] is IDH mutant tumors. Description: Flow cytometry of tumor-infiltrating lymphocytes (TILs). Format: in vivo. The note with it: IDH mutant tumor-bearing mice, vs DMSO-treated controls. As for the experimental part:
Flow cytometry for TILs. IDH WT and mutant tumors were dissociated to form a single cell suspension (SCS). The SCS was then overlaid onto sucrose gradient (Lympholyte-M) and centrifuged at 2400 rpm for 20 minutes. Immune cells at the interphase of the 2 liquids were collected and washed once with PBS. The cells were then stained with appropriate antibodies and acquired on a BD LSR Fortessa flow cytometer. Briefly, cells were washed with PBS and stained with 1 μg antibody for 30 minutes at 4° C. After incubation, the cells were washed three times with FACS buffer (PBS+10% FBS+0.1% Na-azide), resuspended in a final volume of 200 μl of FACS buffer and run through the flow cytometer. Flow cytometry data was analyzed on the Flowjo® v9.1 software. Antibodies used for flow cytometry were as follows: CD45- PE-Cy7, NKp46-FITC, CD11b-APC-Cy7, Gr-1-APC, F4/80-eFluor450, Ly6-c-PerCP-Cy5.5 and CD11c-PE.
ATRA promotes tumor stasis in IDH mutant tumor-bearing mice. To determine the value of ATRA as a therapeutic modality, its anti-tumor efficacy in vivo was evaluated. Athymic nude mice were implanted with 10^6 IDH mutant or WT primary glioma cells in the flank. 21 days after tumor inoculation (when tumors were about 25 mm^2), 10 mg/kg ATRA was administered every other day for 21 days. Tumors were measured every 3 days. […] Resected tumors from ATRA or DMSO-treated mice were digested to obtain single cell suspensions and assessed for killing by human and mouse NK cells ex vivo.
(In flow cytometry, cells or beads pass a laser one at a time.)

In series [3] the test system is IDH mutant primary glioma cells. Description: Tumor growth in athymic nude mice with flank glioma tumors. The format is in vivo. The method, then:
as §1
ATRA promotes tumor stasis in IDH mutant tumor-bearing mice. To determine the value of ATRA as a therapeutic modality, its anti-tumor efficacy in vivo was evaluated. […] Tumors were measured every 3 days. […] Resected tumors from ATRA or DMSO-treated mice were digested to obtain single cell suspensions and assessed for killing by human and mouse NK cells ex vivo.

As for `CC1=C(/C=C/C(C)=C/C=C/C(C)=C/C(=O)O)C(C)(C)CCC1` [ATRA, all-trans retinoic acid], the “toxicity in treated mice (weight loss and wasting)” value in series [1] is given as “not observed in ATRA-treated mice”. Also, in series [2], the “MDSCs and monocytes in TILs” value was “lower MDSCs and monocytes”; the “NKs in TILs” value is on record as “higher number”; the “infiltration of immune cells overall (TILs)” value is recorded as “higher infiltration of immune cells overall”; the “macrophages in TILs” value is “higher number of macrophages”. In addition, in series [3] (10 mg/kg every other day for 21 days, vs DMSO (vehicle)-treated mice and mice with WT tumors), the tumor growth result was “significantly slower tumor growth”. Moreover, in series [3] (ATRA-treated IDH mutant tumors (data not shown)), the “ex vivo expression of ULBP1 and ULBP3 in tumors” value was “increased ex vivo expression of ULBP1 and ULBP3”.
